Here are results for 3 molecules from US11203596B2, “Analogs of 3-amino-4-(propan-2-ylidene)cyclopentane-1-carboxylic acid and uses thereof for treating diseases and disorders associated with ornithine aminotransferase activity” (Northwestern University, priority 2019, dated 2021).

Like-named read-outs stand apart in the source and are kept apart here.

Experiment [1] deals with T1, hOAT (Homo sapiens, UniProt P04181).
T1 construct: made in house
T1 sequence (P04181 36-439 limits assumed): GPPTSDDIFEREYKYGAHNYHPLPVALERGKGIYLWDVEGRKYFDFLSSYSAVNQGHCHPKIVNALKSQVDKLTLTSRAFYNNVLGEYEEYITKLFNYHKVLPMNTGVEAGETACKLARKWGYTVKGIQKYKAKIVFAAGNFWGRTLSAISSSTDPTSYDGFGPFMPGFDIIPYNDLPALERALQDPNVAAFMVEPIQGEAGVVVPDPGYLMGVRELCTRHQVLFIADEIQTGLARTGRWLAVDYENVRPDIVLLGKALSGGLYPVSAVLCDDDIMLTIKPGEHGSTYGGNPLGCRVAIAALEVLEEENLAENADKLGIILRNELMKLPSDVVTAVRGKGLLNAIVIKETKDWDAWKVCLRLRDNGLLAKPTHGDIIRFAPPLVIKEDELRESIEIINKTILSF
As to the kind of experiment: coupled enzyme hOAT assay. Format: biochemical. On the procedure:
With inhibitors in hand, we tested for activity in a previously developed coupled enzyme hOAT assay.^9,21
hOAT and PYCR1 were expressed, grown, and purified according to literature procedures.^22,23 GABA-AT was isolated from pig brains and purified according to literature procedure.^16 Coupled enzyme assays for GABA-AT and hOAT were carried out according to previous procedures.^15,21 All chemical were purchased from Sigma Aldrich, Acros Organics, or Matrix Scientific and used without further purification. Anhydrous solvents (THF, CH2Cl2, DMF) were purified before use by passing through a column composed of activated alumina and a supported copper redox catalyst. Yields refer to chromatographically and spectroscopically (^1H-NMR) homogeneous material. Analytical thin-layer chromatography (TLC) was performed using Merck Silica Gel 60 Å F-254 precoated plates (0.25 mm thickness), and components were visualized by ultraviolet light (254 nm) and/or ceric ammonium molybdate stain. Flash column chromatography was performed on a Teledyne Combiflash Rf Plus automated flash purification system with various Teledyne cartridges (4-80 g, 40-63 μm, 60 Å). Purifications were performed with hexanes and ethyl acetate unless otherwise noted. ^1H and ^13C NMR spectra were recorded on a Bruker Avance-III NMR spectrometer at 500 MHz and 126 MHz, respectively, in CDCl3 or D2O. Chemical shifts were reported in ppm, multiplicities are indicated by s=singlet, d=doublet, t=triplet, q=quartet, sep=septet, dd=doublet of doublet, dt=doublet of triplet, m=multiplet, br=broad resonance. Coupling constants were reported in Hz. High resolution mass spectral data were obtained on an Agilent 6210 LC-TOF spectrometer in the positive ion mode using electrospray ionization with an Agilent G1312A HPLC pump and an Agilent G1367B autoinjector at the Integrated Molecular Structure Education and Research Center (IMSERC), Northwestern University. Analytical HPLC was performed by using a reserved-phase Agilent Infinity 1260 HPLC with a Phenomenex Kintex C-18 column (50×2.1 mm, 2.6 μm), detecting with UV absorbance at 254 nm.

Experiment [2] deals with HCC. Conditions: HCC infected/bearing mice; cited from earlier work.
The target in experiment [3] is T1, hOAT. Particulars: earlier work, cited from earlier work.

With `COC(=O)/C(=C1\C[C@H](C(=O)O)C[C@@H]1N)C(F)(F)F.Cl` [Compound 10, (1S,3S,Z)-3-amino-4-(1,1,1-trifluoro-3-methoxy-3-oxopropan-2-ylidene)cyclopentane-1-carboxylic acid hydrochloride], the Ki in experiment [1] (hOAT inactivation) is 130 µM. In addition, the maximal inactivation rate constant (kinact) in experiment [1] (hOAT inactivation, read-out: kinact (converted)) is 0.00167 s⁻¹. In addition, the kinact/KI in experiment [1] (hOAT inactivation, read-out: kinact/KI (converted)) was 12.2 M⁻¹ s⁻¹. Further, the “activity against hOAT (in words)” value was “similarly potent inhibitor of hOAT” in experiment [1] (hydrochloride) and “active” in experiment [1] (listed as (1S,3S,Z)-3-amino-4-(1,1,1-trifluoro-3-methoxy-3-oxopropan-2-ylidene)cyclopentan, hydrochloride).
`N[C@H]1C[C@@H](C(=O)O)CC1=C(C(F)(F)F)C(F)(F)F` [Compound 1, (1S,3S)-3-amino-4-(perfluoropropan-2-ylidene)cyclopentane-1-carboxylic acid]: in experiment [2], the “HCC marker protein alpha-fetoprotein” value is given as “decrease” and the tumor size entry is given as “decrease”. Moreover, the “inhibition/inactivation of human OAT (in words)” value in experiment [3] is “potent inhibitor”. Moreover, in experiment [3] (listed as (1S,3 S)-3-amino-4-(perfluoropropan-2-ylidene)cyclopentane-1-carboxylic acid), the “inhibition/inactivation of human OAT (in words)” value is “potent inactivator”. In addition, in experiment [1], the kinact was 0.00133 s⁻¹ and the kinact/KI is 25.7 M⁻¹ s⁻¹. For the same molecule, the Ki in experiment [1] (hOAT inactivation) stood at 53 µM.
With `COC(=O)/C(=C1/C[C@H](C(=O)O)C[C@@H]1N)C(F)(F)F.Cl` [Compound 11, (1S,3S,E)-3-amino-4-(1,1,1-trifluoro-3-methoxy-3-oxopropan-2-ylidene)cyclopentane-1-carboxylic acid hydrochloride], the “activity against hOAT (in words)” value in experiment [1] was “inactive”. Moreover, the Ki in experiment [1] (hOAT inactivation) was not below 2000 µM.

Usually kinact stands for the maximal first-order rate at which the target is inactivated.
